Experimental findings from article PMC7027018 (BMC Chemistry, 2020) are described below.

The structures appear in SMILES notation.

Assay [1] deals with T1, hMAO-A (Homo sapiens, UniProt P21397).
T1 construct: purchased Sigma-Aldrich; host or cells: insect cells (BTI-TN-5B14), recombinant baculovirus
T1 sequence (P21397 1-527): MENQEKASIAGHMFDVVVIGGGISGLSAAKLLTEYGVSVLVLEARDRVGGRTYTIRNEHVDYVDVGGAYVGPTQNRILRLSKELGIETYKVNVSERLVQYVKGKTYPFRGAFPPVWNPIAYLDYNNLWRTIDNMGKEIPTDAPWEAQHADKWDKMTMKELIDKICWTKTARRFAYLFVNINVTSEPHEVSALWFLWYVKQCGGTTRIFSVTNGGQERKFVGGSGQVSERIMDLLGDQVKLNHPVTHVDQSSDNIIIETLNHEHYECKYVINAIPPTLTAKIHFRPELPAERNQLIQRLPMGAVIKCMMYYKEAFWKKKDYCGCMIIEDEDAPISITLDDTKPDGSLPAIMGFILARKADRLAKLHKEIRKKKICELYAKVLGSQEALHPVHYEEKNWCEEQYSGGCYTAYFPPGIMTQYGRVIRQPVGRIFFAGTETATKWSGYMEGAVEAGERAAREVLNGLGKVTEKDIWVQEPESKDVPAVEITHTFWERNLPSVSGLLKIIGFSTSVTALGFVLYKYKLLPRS
The assay can be described thus: hMAO-A inhibitory activity, Amplex Red continuous fluorometric assay. To be noted: recombinant hMAO-A, p-tyramine substrate, mean SEM. It counts as biochemical. The protocol: (§1) The synthesized derivatives were screened for the hMAO-A and hMAO-B inhibitory activities by using an extremely sensitive continuous fluorometric assay containing Amplex Red (10-acetyl-3, 7-dihydroxyphenoxazine) reagent. The enzymatic H2O2 was measured with and without extracts or standards.
(§2) Unless otherwise noted, the analytical grade chemicals required for synthesis and antioxidant activity procured from Sigma Aldrich, Merck, Hi-media Laboratories. The analytical assessment of the synthesized derivatives for hMAO inhibition was measured by their effects on the generation of hydrogen peroxide (H2O2) by p-tyramine (a general substrate for both MAO isoforms), utilizing the Amplex Red MAO assay kit (Sigma USA) and microsomal MAO enzymes extracted by insect cells (BTI-TN-5B14) expressed on recombinant baculovirus containing cDNA probes for MAO isoforms (Sigma-Aldrich USA) were used as source for the two microsomal MAO isoforms. The progress of the reaction was cheeked through thin layer chromatography TLC executed on 0.25 mm pre-coated plates with silica gel procured from Merck, and the spots were envisaged in iodine chamber and UV cabinet, in mobile media TLC-hexane:toluene:ethyl acetate (1:1:1). Melting points were recorded on Sonar melting point apparatus in open capillary tubes. The nuclear magnetic resonance (NMR) spectra 1H NMR and ^13C NMR spectra were determined in DMSO and deuterated CDCl3 respectively on a spectrometer (Model: Bruker Avance II 400 NMR). Coupling constants J are in hertz (Hz) (Additional file 1). Spectral data for infrared (IR) was confirmed on Perkin Elmer FTIR spectrophotometer by using KBr pellets technique.
(§3) Human MAO-A and -B recombinant enzymes (Sigma-Aldrich) 5 mg ml^−1 were pre-aliquoted and placed at − 70 °C. The interactions of the titled compounds with hMAO isoforms were evaluated through a fluorimetric method based on the H2O2 formation rendered by MAO isoforms was identified by utilizing the non-fluorescent, extremely susceptible and stable probe Amplex®-Red reagent (10-acetyl-3,7-dihydroxyphenoxazine), which reacts with H2O2 in the existence of horseradish peroxidase to generate resorufin which is a fluorescent component. […] By the incubation time, the reaction was initiated via the addition of 200 μM Amplex Red reagent, 1 mM p-tyramine (general substrate for both MAO isoforms) and 1 U ml^−1 horseradish peroxidase (HRP). […] The calculation of specific fluorescence emission (used to obtain the final results) was carried out by subtraction of background action that was identified by the cuvettes comprising all reagents except the MAO isoforms, which were changed by a sodium phosphate buffer solution. The preparation of stock solutions and all reagents was done newly each day in deionized water and kept at − 20 °C. Data were processed in Microsoft Excel, to calculate IC50 values.
(§4) The enzymatic kinetic factors maximum reaction rate (Vmax) and Michaelis–Menten constant (Km) were computed by GraphPad Prism Software 6.02 (San Diego, CA, USA). The IC50 values were determined by nonlinear regression best fit model of normalized response with variable slope. Lineweaver–Burk plot was obtained from Michaelis–Menten data. The Michaelis–Menten constant (Km) is the concentration of […]. Relative selectivity (RS) folds were defined by the ratio of hMAO-A IC50 to hMAO-B IC50. The inhibition mechanism was identified by the double reciprocal plot (Lineweaver–Burk curves) by plotting the inverse of the substrate concentration (1/S) as a function against the inverse of initial velocity (1/V).

In assay [2] the target is T1, hMAO-A. As to the kind of experiment: Kinetic study (Lineweaver-Burk) of hMAO-A inhibition. The format is biochemical. The conditions noted are these: Lineweaver-Burk plots, p-tyramine substrate.
From the text: The kinetic study by the Lineweaver–Burk plots, carried out to explicates the type of inhibition by compounds 7, 15 shown their significant inhibitory potential towards hMAO-A and hMAO-B, respectively. Reaction mixtures composing of five diverse concentrations of p-tyramine was used as a common substrate in the presence or absence of compounds.
as §4

The next assay concerns the target T2, hMAO-B (Homo sapiens, UniProt P27338).
T2 construct: purchased Sigma-Aldrich; host or cells: insect cells (BTI-TN-5B14), recombinant baculovirus
T2 sequence (P27338 1-520): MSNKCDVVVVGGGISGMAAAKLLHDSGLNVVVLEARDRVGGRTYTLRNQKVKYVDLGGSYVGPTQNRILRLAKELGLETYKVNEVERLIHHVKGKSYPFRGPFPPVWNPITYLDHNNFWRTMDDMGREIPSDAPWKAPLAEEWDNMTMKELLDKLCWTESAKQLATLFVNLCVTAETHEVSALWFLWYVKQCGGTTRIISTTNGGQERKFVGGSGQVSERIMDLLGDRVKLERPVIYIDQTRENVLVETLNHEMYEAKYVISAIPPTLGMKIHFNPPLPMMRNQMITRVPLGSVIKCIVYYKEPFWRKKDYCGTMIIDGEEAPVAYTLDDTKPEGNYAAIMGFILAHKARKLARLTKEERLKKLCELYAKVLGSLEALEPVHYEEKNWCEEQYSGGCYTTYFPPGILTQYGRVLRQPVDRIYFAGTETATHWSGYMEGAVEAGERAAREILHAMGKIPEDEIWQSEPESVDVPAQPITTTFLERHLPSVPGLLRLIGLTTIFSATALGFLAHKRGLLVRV
The assay can be described thus: hMAO-B inhibitory activity, Amplex Red continuous fluorometric assay. The conditions noted are these: for Selectivity index: IC50 (MAO-A)/IC50 (MAO-B); for IC50: recombinant hMAO-B, p-tyramine substrate, Amplex Red, mean SEM. The format is biochemical. How it is done:
as §1, §2, §3, §4

Assay [3] in a line: Hydrogen peroxide scavenging (H2O2) assay. The conditions noted are these: absorption at 230 nm, 10 min incubation, phosphate buffer pH 7.4; mean ± SEM, n = 3. The protocol: H2O2 is quickly decomposed into oxygen and water and this could generate hydroxyl radicals (OH) that may commence DNA damage in the body and lipid peroxidation. The hydrogen peroxide inhibitory activity of newly synthesized compounds was assessed by the technique illustrated by Nakano and coworkers with some modifications. In phosphate buffer (40 mM pH 7.4) the solution of hydrogen peroxide (40 mM) was prepared and different concentrations of titled compounds (05–80 μg ml^−1) were added to H2O2 solution (2 ml). The concentration of hydrogen peroxide is determined by absorption at 230 nm using a spectrophotometer after 10 min of incubation. Blank reading was noted of phosphate buffer without H2O2. The percentage of hydrogen peroxide inhibition was anticipated by the formula [(Ab − At)/[…]] × 100, where Ab is the absorbance of the control and At is the absorbance of compounds/standard taken as L-ascorbic acid (05–80 μg ml^−1). UV/Vis Epoch ELISA reader was used to measure as a decrease in absorbance in the 96 wells (Table 5).

Assay [4] is described as follows: DPPH radicals scavenging activity. To be noted: absorbance at 517 nm, 30 min at 37 °C; mean ± SEM, n = 3. The source says:
Besides their inhibitory action on hMAO the antioxidant potential of synthesized compounds was investigated using 1,1-Diphenyl-2-picrylhydrazyl (DPPH) assay. DPPH was utilized as a stable free radical because free radicals simulate reactive nitrogen and oxygen species distressing neurological structure.
The DPPH method is one of the most proficient techniques to assess the radical-scavenging action by a chain-breaking mechanism. […] DPPH is stable free radical on room temperature, however on acceptance of a hydrogen/electron radical it turns into a stable diamagnetic molecule. The scavenging activity of DPPH radical is assessed by the reduction in its optical density at 5l7 nm, rendered by antioxidants. This phenomenal feature of DPPH is due to the reaction among antioxidant compounds and radicals, leads to the scavenging of the free radical via donated hydrogen. It manifested visually as the color bleaches from purple to yellow. Therefore, DPPH is generally utilized as a substrate to estimate the ant oxidative potential. Different concentrations of around […] (25, 50, 75, and 100) µg ml^−1 of the titled derivatives were suspended in methanol and mixed with 5 ml of a 0.004% methanol solution of DPPH. Subsequently the all dilutions were subjected to incubation for 30 min at 37 °C temperature; finally, at 517 nm the absorbance was measured against a blank. Ascorbic acid was utilized as a reference while and all the experiments were performed in triplicate. […] DPPH free radical scavenging of compounds was calculated as scavenging activity for DPPH (%) = [(Ac − At)/Ac] × 100 Where Ac is the absorbance of the control reaction At is the absorbance of the test compound. The absorbance was measured with UV/Vis Epoch ELISA reader at 517 nm, and antioxidant activity was measured as a decrease in absorbance of DPPH·.
(In general: Loss of DPPH colour is used to gauge radical scavenging.)

One may read the IC50 as the midpoint of a concentration-inhibition curve. `O=C(/C=C/C=C/c1ccc2c(c1)OCO2)Nc1cccc2ccccc12` [Compound 7]: the IC50 was found to be 15.38 ± 0.071 µM on hMAO-A [1], 52.2 ± 0.006 µM on hMAO-B, 9.495 ± 0.045 µM in assay [3] and 8.815 ± 0.019 µM in assay [4]. Further, the “type of hMAO-A inhibition” value on hMAO-A [2] is on record as “competitive”. On hMAO-B, this compound gave a Selectivity index of 0.294.

Regarding `C=CCc1ccc(OC(=O)/C=C/C=C/c2ccc3c(c2)OCO3)c(OC)c1` [Compound 17c], the IC50 on hMAO-A [1] is 16.11 ± 0.091 µM; at hMAO-B it was 26.44 ± 0.063 µM; in assay [3], 15.71 ± 0.014 µM; in assay [4], 16.52 ± 0.012 µM. Further, the Selectivity index on hMAO-B was determined as 0.609.

For the compound `Cc1ccc(C(C)C)cc1OC(=O)/C=C/C=C/c1ccc2c(c1)OCO2` [Compound 17a], the IC50 on hMAO-A [1] was 32.33 ± 0.043 µM; at hMAO-B, 21.37 ± 0.007 µM; in assay [3], 23.76 ± 0.021 µM; in assay [4], 17.15 ± 0.026 µM. This compound also registered a Selectivity index at hMAO-B of 1.512.

Turning to `O=C(/C=C/C=C/c1ccc2c(c1)OCO2)Oc1ccc2ccc(=O)oc2c1` [Compound 13], the IC50 turned out to be 24.53 ± 0.002 µM at hMAO-A [1], 65.99 ± 0.002 µM at hMAO-B, 11.35 ± 0.004 µM in assay [3] and 10.7 ± 0.035 µM in assay [4]. This compound came in with a Selectivity index at hMAO-B of 0.371.

Consider `COc1cc(C=O)ccc1OC(=O)/C=C/C=C/c1ccc2c(c1)OCO2` [Compound 17b], for which the IC50 at hMAO-A [1] stood at 30 ± 0.005 µM; on hMAO-B it was 17.9 ± 0.038 µM; in assay [3], 10.09 ± 0.013 µM; in assay [4], 8.281 ± 0.001 µM. The same compound had a Selectivity index at hMAO-B of 1.675.

As for `O=C(/C=C/C=C/c1ccc2c(c1)OCO2)N1CCOCC1` [Compound 9], the IC50 on hMAO-A [1] came to 22.19 ± 0.07 µM; at hMAO-B it was 71.01 ± 0.005 µM; in assay [3], 13.98 ± 0.01 µM; in assay [4], 12.35 ± 0.021 µM.

With `CC1CCC(C(C)C)C(OC(=O)/C=C/C=C/c2ccc3c(c2)OCO3)C1` (stereo not drawn) [Compound 11], the IC50 at hMAO-A [1] stood at 33.72 ± 0.071 µM; at hMAO-B, 20.59 ± 0.006 µM; in assay [3], 17.57 ± 0.091 µM; in assay [4] it was 14.15 ± 0.011 µM. The same compound yielded a Selectivity index at hMAO-B of 1.637.

With `O=C(/C=C/C=C/c1ccc2c(c1)OCO2)Nc1ccc(Br)cc1` [Compound 5], the IC50 at hMAO-A [1] came out at 60.19 ± 0.087 µM; on hMAO-B it was 14.19 ± 0.007 µM; in assay [3], 8.279 ± 0.017 µM; in assay [4], 5.553 ± 0.007 µM. At hMAO-B, the Selectivity index was determined as 4.241.

For `O=C(/C=C/C=C/c1ccc2c(c1)OCO2)N1CCCCC1` [Piperine, reference compound], the IC50 came out at 19.01 ± 0.031 µM at hMAO-A [1], 17.57 ± 0.037 µM on hMAO-B, 11.33 ± 0.016 µM in assay [3] and 9.814 ± 0.053 µM in assay [4]. In addition, at hMAO-B, the Selectivity index is 1.081.
